Laboratory results taken from patent publication US9216999B2, “Substituted pyrrolo[2,3-h][1,6]naphthyridines and compositions thereof as JAK inhibitors” (priority 2011, dated 2015).

Columns and labels:
JAK3 [1] = molecular target: T1, JAK3 (Homo sapiens (Human), UniProt P52333); test: JAK3 enzyme assay (Assay Example^b 1)
JAK1 = JAK1 (Homo sapiens (Human), UniProt P23458); test: Enzyme assay (Assay Example^a 1), JAK1; format: biochemical; details: ATP 100 μM
JAK2 = JAK2 (Homo sapiens (Human), UniProt O60674); test: Enzyme assay (Assay Example^a 1), JAK2; format: biochemical; details: ATP 100 μM
JAK3 [2] = molecular target: T1, JAK3; test: Enzyme assay (Assay Example^a 1), JAK3; format: biochemical; details: ATP 100 μM
Tyk2 = Tyk2 (Homo sapiens (Human), UniProt P29597); test: Enzyme assay (Assay Example^a 1), Tyk2; format: biochemical; details: ATP 100 μM
Tyk2, sequence (P29597 whole entry): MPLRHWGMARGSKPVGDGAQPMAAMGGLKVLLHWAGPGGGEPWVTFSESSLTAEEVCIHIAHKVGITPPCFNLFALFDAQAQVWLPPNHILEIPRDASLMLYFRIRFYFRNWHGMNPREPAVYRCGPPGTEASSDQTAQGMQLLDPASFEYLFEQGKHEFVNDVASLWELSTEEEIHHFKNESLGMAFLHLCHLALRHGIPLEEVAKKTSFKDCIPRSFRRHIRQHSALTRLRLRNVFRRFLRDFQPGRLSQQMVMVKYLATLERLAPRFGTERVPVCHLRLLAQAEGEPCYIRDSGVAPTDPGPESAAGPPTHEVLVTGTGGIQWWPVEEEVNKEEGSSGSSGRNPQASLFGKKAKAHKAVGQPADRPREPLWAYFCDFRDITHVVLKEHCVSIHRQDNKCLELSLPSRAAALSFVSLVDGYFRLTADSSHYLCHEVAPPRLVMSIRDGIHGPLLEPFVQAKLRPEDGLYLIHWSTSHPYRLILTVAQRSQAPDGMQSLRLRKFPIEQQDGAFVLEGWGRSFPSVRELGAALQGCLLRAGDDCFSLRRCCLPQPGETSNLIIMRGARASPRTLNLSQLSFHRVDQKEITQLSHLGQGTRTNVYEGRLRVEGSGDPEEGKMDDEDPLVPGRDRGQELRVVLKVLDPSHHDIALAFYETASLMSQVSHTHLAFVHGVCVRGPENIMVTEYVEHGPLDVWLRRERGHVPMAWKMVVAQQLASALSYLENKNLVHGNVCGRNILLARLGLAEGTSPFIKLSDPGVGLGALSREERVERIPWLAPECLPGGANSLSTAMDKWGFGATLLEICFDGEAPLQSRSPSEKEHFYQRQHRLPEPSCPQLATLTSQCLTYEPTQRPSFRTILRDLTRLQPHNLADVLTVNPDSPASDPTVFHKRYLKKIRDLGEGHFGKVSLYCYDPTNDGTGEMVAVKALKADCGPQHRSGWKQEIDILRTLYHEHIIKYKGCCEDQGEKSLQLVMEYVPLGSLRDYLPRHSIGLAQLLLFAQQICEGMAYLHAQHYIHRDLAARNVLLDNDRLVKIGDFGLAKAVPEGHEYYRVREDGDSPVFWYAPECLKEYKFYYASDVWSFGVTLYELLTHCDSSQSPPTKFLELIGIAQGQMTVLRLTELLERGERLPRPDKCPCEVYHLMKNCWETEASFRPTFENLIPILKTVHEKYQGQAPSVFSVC

[3] = IC50 (μM) JAK3, Table^b 80, ATP 100 μM

T1 sequence (P52333 whole entry): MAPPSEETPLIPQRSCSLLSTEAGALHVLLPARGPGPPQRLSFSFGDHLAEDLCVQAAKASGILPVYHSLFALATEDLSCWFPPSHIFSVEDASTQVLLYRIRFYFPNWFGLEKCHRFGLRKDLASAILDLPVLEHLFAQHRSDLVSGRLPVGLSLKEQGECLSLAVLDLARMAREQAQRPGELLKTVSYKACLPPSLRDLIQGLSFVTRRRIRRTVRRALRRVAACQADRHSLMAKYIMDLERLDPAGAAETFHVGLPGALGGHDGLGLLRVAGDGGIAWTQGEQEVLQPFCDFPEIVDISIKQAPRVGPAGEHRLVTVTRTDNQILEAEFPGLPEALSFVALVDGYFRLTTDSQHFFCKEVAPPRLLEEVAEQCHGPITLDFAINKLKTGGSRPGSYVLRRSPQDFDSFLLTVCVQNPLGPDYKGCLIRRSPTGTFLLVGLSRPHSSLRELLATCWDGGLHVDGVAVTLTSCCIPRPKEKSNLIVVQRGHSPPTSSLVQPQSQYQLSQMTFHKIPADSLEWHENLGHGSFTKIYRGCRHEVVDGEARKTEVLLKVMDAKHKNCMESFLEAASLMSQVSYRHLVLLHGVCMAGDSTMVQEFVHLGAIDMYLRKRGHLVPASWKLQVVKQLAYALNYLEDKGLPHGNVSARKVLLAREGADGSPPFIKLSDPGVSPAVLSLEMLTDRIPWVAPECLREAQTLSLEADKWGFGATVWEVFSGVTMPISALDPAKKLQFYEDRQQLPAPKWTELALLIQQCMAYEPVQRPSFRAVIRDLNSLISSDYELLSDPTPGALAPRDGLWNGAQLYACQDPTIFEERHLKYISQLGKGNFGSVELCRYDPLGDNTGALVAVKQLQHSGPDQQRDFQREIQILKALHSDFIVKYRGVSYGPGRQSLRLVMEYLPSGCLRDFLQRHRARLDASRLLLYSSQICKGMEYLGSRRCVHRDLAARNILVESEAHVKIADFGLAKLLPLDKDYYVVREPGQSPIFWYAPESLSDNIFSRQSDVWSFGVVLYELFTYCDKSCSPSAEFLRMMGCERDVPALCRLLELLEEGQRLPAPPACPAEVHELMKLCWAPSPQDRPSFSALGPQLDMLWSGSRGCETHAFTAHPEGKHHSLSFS

IC50 (JAK1)	IC50 (JAK2)	IC50 (JAK3 [2])	IC50 (Tyk2)	Structure (SMILES)	other results
				N#CCC1CN(C[C@H]2CC[C@H](n3c(=O)[nH]c(=O)c4cnc5[nH]ccc5c43)CC2)C1 [compound 124]	IC50 (JAK3 [1]; IC50 (μM) JAK3, ATP 100 μM): > 1 µM
				C[C@@H]1CCN(C(=O)OCc2ccccc2)C[C@@H]1n1ccc(=O)c2cnc3[nH]ccc3c21 (racemic) [compound 35]	IC50 (JAK3 [1]; [3]): 0.11 µM
				O=c1ccn(C2CCN(Cc3ccc([N+](=O)[O-])o3)CC2)c2c1cnc1[nH]ccc12 [compound 72]	IC50 (JAK3 [1]; [3]): > 1 µM
				O=c1ccn(C2CCN(Cc3ccc4[nH]ccc4c3)CC2)c2c1cnc1[nH]ccc12 [compound 85]	IC50 (JAK3 [1]; [3]): > 1 µM
				C[C@@H]1CCN(S(=O)(=O)c2ccccc2C#N)C[C@@H]1n1ccc(=O)c2cnc3[nH]ccc3c21 (racemic) [compound 25]	IC50 (JAK3 [1]; [3]): 0.07 µM
				C[C@@H]1CCN(Cc2cccc(C(F)(F)F)c2)C[C@@H]1n1ccc(=O)c2cnc3[nH]ccc3c21 (racemic) [compound 39]	IC50 (JAK3 [1]; [3]): 0.18 µM
				Fc1cc(C(F)(F)F)ccc1CN1CCC(c2nnn3cnc4[nH]ccc4c23)CC1 [compound 157]	IC50 (JAK1; Table^a 154): 0.002 µM; IC50 (JAK2; Table^a 154): 0.02 µM; IC50 (JAK3 [2]; Table^a 154): 0.24 µM; IC50 (Tyk2; Table^a 154): 0.31 µM
0.0043 µM	0.015 µM	0.17 µM	0.36 µM	O=C(CC(F)(F)F)N(CC(F)(F)F)C[C@H]1CC[C@H](c2nnn3cnc4[nH]ccc4c23)CC1 [compound 411, N-{[trans-4-(7H-Pyrrolo[3,2-e][1,2,3]triazolo[1,5-c]pyrimidin-1-yl)cyclohexyl]methyl}-3,3,3-trifluoro-N-(2,2,2-trifluoroethyl)propanamide]	
0.024 µM	0.072 µM	0.96 µM	> 1 µM	N#C[C@@H]1CCN(C[C@H]2CC[C@H](c3nnn4cnc5[nH]ccc5c34)CC2)C1 [compound 301, (R)-1-{[trans-4-(7H-pyrrolo[3,2-e][1,2,3]triazolo[1,5-c]pyrimidin-1-yl)cyclohexyl]methyl}pyrrolidine-3-carbonitrile]	
				O=C(CC(F)(F)F)N1CCCC(c2nnn3cnc4[nH]ccc4c23)C1 (racemic) [compound 17]	IC50 (JAK1; Table^a 154): 0.029 µM; IC50 (JAK2; Table^a 154): 0.076 µM; IC50 (JAK3 [2]; Table^a 154): 2.1 µM; IC50 (Tyk2; Table^a 154): 0.57 µM
				O=C(NCc1ccc(F)cc1)[C@H]1CC[C@H](c2nnn3cnc4[nH]ccc4c23)CC1 [compound 207, trans-N-(4-fluorobenzyl)-4-(7H-pyrrolo[3,2-e][1,2,3]triazolo[1,5-c]pyrimidin-1-yl)cyclohexanecarboxamide]	IC50 (JAK1; Table^a 154): 0.009 µM; IC50 (JAK2; Table^a 154): 0.055 µM; IC50 (JAK3 [2]; Table^a 154): > 1 µM; IC50 (Tyk2; Table^a 154): > 1 µM
0.0067 µM	0.065 µM	0.85 µM	0.52 µM	FC1(F)Oc2ccc(NC[C@H]3CC[C@H](c4nnn5cnc6[nH]ccc6c45)CC3)cc2O1 [compound 275, N-{[trans-4-(7H-pyrrolo[3,2-e][1,2,3]triazolo[1,5-c]pyrimidin-1-yl)cyclohexyl]methyl}-2,2-difluorobenzo[d][1,3]dioxol-5-amine]	
0.0045 µM	0.017 µM	0.054 µM	> 1 µM	N#Cc1ccc(CN2CCC(c3nnn4cnc5[nH]cc(Cl)c5c34)CC2)cc1 [compound 377, 4-{[4-(9-Chloro-7H-pyrrolo[3,2-e][1,2,3]triazolo[1,5-c]pyrimidin-1-yl)piperidin-1-yl]methyl}benzonitrile]	
				FC(F)(F)c1ccc(CCN2CCC(c3nnn4cnc5[nH]ccc5c34)CC2)cc1 [compound 42]	IC50 (JAK1; Table^a 154): 0.082 µM; IC50 (JAK2; Table^a 154): 0.41 µM; IC50 (JAK3 [2]; Table^a 154): > 1 µM; IC50 (Tyk2; Table^a 154): > 1 µM
				c1ccc(CCCN[C@H]2CC[C@H](c3nnn4cnc5[nH]ccc5c34)CC2)cc1 [136b]	IC50 (JAK1; Table^a 154): 0.016 µM; IC50 (JAK2; Table^a 154): 0.29 µM; IC50 (JAK3 [2]; Table^a 154): > 1 µM; IC50 (Tyk2; Table^a 154): 0.45 µM
0.02 µM	0.13 µM	0.26 µM	0.13 µM	Cc1ccccc1-c1nnn2cnc3[nH]ccc3c12 [compound 5]	
0.0038 µM	0.065 µM	0.73 µM	0.19 µM	CN(C)C[C@H]1CC[C@H](c2nnn3cnc4[nH]ccc4c23)CC1 [compound 296, 1-[trans-4-(7H-pyrrolo[3,2-e][1,2,3]triazolo[1,5-c]pyrimidin-1-yl)cyclohexyl]-N,N-dimethylmethanamine]	
				Cc1ccc(CNC[C@H]2CC[C@H](c3nnn4cnc5[nH]ccc5c34)CC2)o1 [compound 182, 1-[trans-4-(7H-pyrrolo[3,2-e][1,2,3]triazolo[1,5-c]pyrimidin-1-yl)cyclohexyl]-N-[(5-methylfuran-2-yl)methyl]methanamine]	IC50 (JAK1; Table^a 154): 0.0054 µM; IC50 (JAK2; Table^a 154): 0.039 µM; IC50 (JAK3 [2]; Table^a 154): 0.28 µM; IC50 (Tyk2; Table^a 154): 0.016 µM
0.0054 µM	0.021 µM	0.72 µM	0.17 µM	N#CC[C@H]1CC[C@@H](c2nnn3cnc4[nH]ccc4c23)CC1 [435a, 2-[cis-4-(7H-Pyrrolo[3,2-e][1,2,3]triazolo[1,5-c]pyrimidin-1-yl)cyclohexyl]acetonitrile]	
				C[C@@H](O)CNC[C@H]1CC[C@H](c2nnn3cnc4[nH]ccc4c23)CC1 [compound 185, (R)-1-({[trans-4-(7H-pyrrolo[3,2-e][1,2,3]triazolo[1,5-c]pyrimidin-1-yl)cyclohexyl]methyl}amino)propan-2-ol]	IC50 (JAK1; Table^a 154): 0.0081 µM; IC50 (JAK2; Table^a 154): 0.051 µM; IC50 (JAK3 [2]; Table^a 154): 0.32 µM; IC50 (Tyk2; Table^a 154): 0.13 µM
				c1ccc(CN[C@H]2CC[C@H](c3nnn4cnc5[nH]ccc5c34)CC2)cc1 [194b, trans-N-benzyl-4-(7H-pyrrolo[3,2-e][1,2,3]triazolo[1,5-c]pyrimidin-1-yl)cyclohexanamine]	IC50 (JAK1; Table^a 154): 0.0084 µM; IC50 (JAK2; Table^a 154): 0.046 µM; IC50 (JAK3 [2]; Table^a 154): 0.5 µM; IC50 (Tyk2; Table^a 154): 0.11 µM
0.08 µM	0.18 µM	0.38 µM	> 1 µM	Clc1n[nH]c2ccc(CN3CCC(c4nnn5cnc6[nH]ccc6c45)CC3)cc12 [compound 217, 1-{1-[(3-chloro-1H-indazol-5-yl)methyl]piperidin-4-yl}-7H-pyrrolo[3,2-e][1,2,3]triazolo[1,5-c]pyrimidine]	
0.002 µM	0.0025 µM	0.2 µM	0.028 µM	N#CCCN(CCC#N)C1CCC(c2nnn3cnc4[nH]ccc4c23)CC1 (stereo not drawn) [compound 380, 3,3′-{[4-(7H-pyrrolo[3,2-e][1,2,3]triazolo[1,5-c]pyrimidin-1-yl)cyclohexyl]azanediyl}dipropanenitrile]	
0.017 µM	0.056 µM	0.49 µM	0.86 µM	Fc1ccc(NC[C@H]2CC[C@H](c3nnn4cnc5[nH]ccc5c34)CC2)cc1F [compound 249, N-{[trans-4-(7H-pyrrolo[3,2-e][1,2,3]triazolo[1,5-c]pyrimidin-1-yl)cyclohexyl]methyl}-3,4-difluoroaniline]	
				c1ccc(CCCN[C@H]2CC[C@@H](c3nnn4cnc5[nH]ccc5c34)CC2)cc1 [136a]	IC50 (JAK1; Table^a 154): 0.14 µM; IC50 (JAK2; Table^a 154): > 1 µM; IC50 (JAK3 [2]; Table^a 154): > 1 µM; IC50 (Tyk2; Table^a 154): > 1 µM
0.0034 µM	0.009 µM	0.25 µM	0.045 µM	N#CC1CC12CCC(c1nnn3cnc4[nH]ccc4c13)CC2 (stereo not drawn) [compound 444, 6-(7H-Pyrrolo[3,2-e][1,2,3]triazolo[1,5-c]pyrimidin-1-yl)spiro[2.5]octane-1-carbonitrile]	

Structure (SMILES)	IC50 (JAK1)	IC50 (JAK2)	IC50 (JAK3 [2])	IC50 (Tyk2)	other results
OC[C@H]1CCCN1C[C@H]1CC[C@H](c2nnn3cnc4[nH]ccc4c23)CC1 [compound 265, ((R)-1-{[trans-4-(7H-pyrrolo[3,2-e][1,2,3]triazolo[1,5-c]pyrimidin-1-yl)cyclohexyl]methyl}pyrrolidin-2-yl)methanol]	0.046 µM	0.18 µM	> 1 µM	> 1 µM	
Fc1cc(NC[C@H]2CC[C@H](c3nnn4cnc5[nH]ccc5c34)CC2)cc(F)c1F [compound 250, N-{[trans-4-(7H-pyrrolo[3,2-e][1,2,3]triazolo[1,5-c]pyrimidin-1-yl)cyclohexyl]methyl}-3,4,5-trifluoroaniline]	0.031 µM	0.18 µM	> 1 µM	> 1 µM	
FC(F)(F)COC1CN(C[C@H]2CC[C@H](c3nnn4cnc5[nH]ccc5c34)CC2)C1 [compound 421, 1-(trans-4-{[3-(2,2,2-Trifluoroethoxy)azetidin-1-yl]methyl}cyclohexyl)-7H-pyrrolo[3,2-e][1,2,3]triazolo[1,5-c]pyrimidine]	0.01 µM	0.17 µM	> 1 µM	> 1 µM	
N#Cc1ccc(CCNC(=O)[C@H]2CC[C@H](c3nnn4cnc5[nH]ccc5c34)CC2)cc1 [compound 362, trans-N-(4-cyanophenethyl)-4-(7H-pyrrolo[3,2-e][1,2,3]triazolo[1,5-c]pyrimidin-1-yl)cyclohexanecarboxamide]	0.0074 µM	0.057 µM	> 1 µM	> 1 µM	
CC(C)NC[C@H]1CC[C@H](c2nnn3cnc4[nH]ccc4c23)CC1 [compound 331, N-{[trans-4-(7H-pyrrolo[3,2-e][1,2,3]triazolo[1,5-c]pyrimidin-1-yl)cyclohexyl]methyl}propan-2-amine]	0.0088 µM	0.054 µM	> 1 µM	0.42 µM	
N#CC1CN(C(=O)[C@H]2CC[C@H](c3nnn4cnc5[nH]ccc5c34)CC2)C1 [compound 363, 1-[trans-4-(7H-pyrrolo[3,2-e][1,2,3]triazolo[1,5-c]pyrimidin-1-yl)cyclohexanecarbonyl]azetidine-3-carbonitrile]	0.044 µM	0.29 µM	> 1 µM	> 1 µM	
OCCN(C[C@H]1CC[C@H](c2nnn3cnc4[nH]ccc4c23)CC1)C1CCCCC1 [compound 306, 2-({[trans-4-(7H-pyrrolo[3,2-e][1,2,3]triazolo[1,5-c]pyrimidin-1-yl)cyclohexyl]methyl}(cyclohexyl)amino)ethanol]	0.015 µM	0.054 µM	> 1 µM	0.62 µM	
